Data taken from patent US20240024500A1, “ELECTROSTATIC NANOPARTICLES AND USE THEREOF” (Westfaelische Wilhelms-Universitaet Muenster, priority 2020, published 2024).
Read-outs that look alike come from different tables or passages of the source.

How the values were obtained:
HBL-1 cells = test: Colony formation assay, HBL-1, ibrutinib-Cy3.5 cargo; format: cell-based
Procedure: Next, we planned functional assays for identifying the effectivity of the antibody-inhibitor-complexes. DLBCL tumor cells were seeded in methylcellulose to form anchorage-free colony growth as a substitute marker for tumorigenicity. Assays were treated with combinations of antibody-inhibitor complexes and compared with appropriate control groups.
This colony-assay is used for quantification of anchorage-independent clonal cell growth and is a standard in vitro surrogate for tumorigenicity in vivo.

HBL-1 DLBCL-cells = test: NSG-HBL1 xenograft model; conditions: after treatment start
[1] = Cell-free vesicle formation, light/fluorescence microscopy; format: physicochemical; conditions: charged vs uncharged cargo, modified vs unmodified antibody
Procedure: Based upon these measurements, we hypothesized that the antibody-protamine/free SMCC-protamine/siRNA complexes form outside cells and independently of a cellular context. […]
We further analysed the properties of the different conjugation products according to their capacity to form vesicular-structures without cells when these conjugation products were incubated with Alexa488-control-siRNA (FIG. 40 G-L) as well as with EGFR-positive A459 cells (FIG. 40 M-R). When cetuximab was conjugated with SMCC-protamine at ratios of 1:1 up to 1:10, no efficient cell-free vesicle formation could be observed (FIG. 40 G-I), while at the ratio 1:32, the vesicle formation was very abundant FIG. 40 J) and decreased at ratios 1:50 and 1:100 (FIG. 40 K-L). The internalisation capacity of these complexes was highest upon conjugation 1:32 (FIG. 40 P), decrease upon conjugation 1:10 (FIG. 40 O). […] This hinted at an optimal complex formation of cetuximab with SMCC-protamine of 1:32, since this lead to the most efficient conjugation, vesicle formation without cells and internalisation into cells.
To further elucidate the function of SMCC-protamine coupled to the antibody and as free molecule within the complex, we titrated the amount of SMCC-protamine added to the antibody-protamine-conjugates that were depleted from free SMCC-protamine by HPLC. […] We added different amounts of free SMCC-protamine and protamine alone to anti-EGFR-mAB-P (FIG. 41).

[2] = biological target: EGFR (epidermal growth factor receptor) on cells (UniProt P00533); test: cell-based or functional assay

In the case of `C=CC(=O)N1CCC[C@@H](n2nc(-c3ccc(Oc4ccccc4)cc3)c3c(N)ncnc32)C1` [ibrutinib, 1-[(3R)-3-[4-amino-3-(4-phenoxyphenyl)pyrazolo[3,4-d]pyrimidin-1-yl]piperidin-1-yl]prop-2-en-1-one], the “colony formation of HBL-1 cells” value (HBL-1 cells) is reported as “much lesser degree”, the “day by which all / the last mice had to be sacrificed” value (HBL-1 DLBCL-cells) is reported as 20 days and the “nanoparticle formation with antibody carriers” value (from here on “nanoparticle formation”) [1] is reported as “not seen”. The “nanoparticle formation” value ([1]; listed as uncharged ibrutinib) was “not”.
In the case of “cetuximab-SMCC-protamine conjugate (anti-EGFR-mAB-protamine, used with free SMCC-protamine) (antibody)”, the Alexa488-siRNA shuttled into RD cells (FACS) [2] is reported as > 90 % of cells and the internalisation of Alexa488-siRNA into RD cells (FACS) [2] is reported as < 90 % of cells.
In the case of rituximab: anti-CD20 antibody, the “colony formation of HBL-1 cells” value (HBL-1 cells; listed as unconjugated rituximab) is reported as “only a mild effect”, the “colony formation of HBL-1 cells” value (HBL-1 cells; listed as unmodified rituximab (αCD20-mAB)) is reported as “not” and the “day by which all / the last mice had to be sacrificed” value (HBL-1 DLBCL-cells) is reported as at most 16 days. For the same compound, the “nanoparticle formation” value [1] was “not seen”.
